Experimental data taken from patent publication US20250195457A1, “PHARMACEUTICAL COMPOSITION FOR TREATMENT OF PARKINSON'S DISEASE” (Eisai R&D Management Co., Ltd., priority 2022, published 2025).

How the values were obtained:
[1] = system: levodopa-induced dyskinesia model cynomolgus monkeys; experiment: Test Example 3: dyskinesia score in levodopa-induced dyskinesia model monkeys; type: in vivo; set-up: key to Dyskinesia score: dyskinesia score 0 = normal home cage activity to 4 = severe stereotypy; details: Istradefylline 60 mg/kg (G4)
Protocol: A levodopa/carbidopa mixture containing 80 mg/kg of levodopa and 20 mg/kg of carbidopa and having a solution volume of 5 mL/kg was orally administered to Parkinson's disease model cynomolgus monkeys at the age of 6 to 7 prepared in the same way as in Test Example 1 for 8 consecutive days to provide levodopa-induced dyskinesia model cynomolgus monkeys. The induction of dyskinesia was determined based on the “dyskinesia score” in accordance with the following behavior evaluation items in the following test on activity in home cages, and animals having dyskinesia scores of 1 or more on day 7 of the repeated administration of the levodopa/carbidopa mixture were used.
Home cage activities corresponding to dyskinesia scores • 0: Normal home cage activity (exploring or inactivity, able to drink water, plays with mirror or caging, climbing of the walls). • 1: Some interference with normal activity, however able to climb walls. • 2: Occasional exploration of cage, some stereotypy • 3: Little normal movement, lack of climbing of walls, clear stereotypy • 4: Lack of normal home cage activity, lack of normal exploratory behavior and movement, severe stereotypy
Seven levodopa-induced dyskinesia model cynomolgus monkeys were randomized into 4 groups of approximately equal mean and variance in terms of body weight. On subsequent cycles 2, 3, and 4, the animals were crossed over to receive the other treatment. A wash out period of one week or more was set between cycles.
One of the seven animals was excluded from the evaluation of cycles 3 and 4 because it was unable to get up due to dyskinesia on day 8 in cycle 3 of the repeated administration of the levodopa/carbidopa mixture.
By the end of the study, each animal had received all the four treatments. Each substance was administered 1 hr. after the administration on day 8 of the repeated administration of the levodopa/carbidopa mixture. As a vehicle, an aqueous solution containing 0.43% (w/v) methyl cellulose 400, 10% (v/v) dimethyl sulfoxide (DMSO), and 4.5% (w/v) Cremophor (R) were used.
(§1) Before the administration, and 1 hr., 4 hrs., and 24 hrs. after the administration of the test substances, the dyskinesia scores of the animals were evaluated. The behavior evaluation was performed in a blinded manner. The dyskinesia scores of the groups were compared using Steel's test. The p-values of less than 0.05 were considered to be statistically significant.

[2] = system: Parkinson's disease model cynomolgus monkeys (MPTP); experiment: Test Example 1: NDSs after administration of Compound (I) alone in MPTP Parkinson's disease model monkeys; type: in vivo; set-up: key to Subgroup 2: Specific motor functions score: specific motor functions subscore, range 0-21; details: Istradefylline 60 mg/kg (G5)
Protocol: (§2) The therapeutic effect of Compound (I) on Parkinson's disease was examined using Parkinson's disease model animals which are produced by administering MPTP (1-methyl-4-phenyl-1,2,3,6-tetrahydropyridine).
MPTP was administered to male cynomolgus monkeys at the age of 4 to 5 to make Parkinson's disease model cynomolgus monkeys. MPTP was additionally administered to animals with neurologic deficit scores (Neurological deficit scores: NDSs, Schneider et al., “Development of levodopa-induced dyskinesias in parkinsonian monkeys may depend upon rate of symptom onset and/or duration of symptoms”, Brain Res., 2003, 990:38-44.) of less than 25.
Eight Parkinson's disease model cynomolgus monkeys were randomized into 5 groups of approximately equal mean and variance in terms of Parkinson behavior rating (Tremor score) and body weight. On subsequent cycle 2, cycle 3, cycle 4 and cycle 5, the animals were crossed over to receive the other treatments. A wash out period of one week or more was set between each cycle.
By the end of the study, each animal had received all the five treatments. Istradefylline is an adenosine A2A receptor antagonist approved as a drug for improving a wearing off phenomenon in Parkinson's disease being treated with a levodopa-containing preparation in the United States of America and Japan (Patent Literature 4). As a vehicle, an aqueous solution containing 0.43% (w/v) methyl cellulose 400, 10% (v/v) dimethyl sulfoxide (DMSO), and 4.5% (w/v) Cremophor (R) was used.
as §1, with “NDSs” for “dyskinesia scores”, “monkeys” for “animals”, “evaluated. The evaluation items are as follows.” for “evaluated.”
Subgroup 1: generalized behaviors (0-32) • 1.1a Appetite • 0: Normal • 1: Up to 30% food left • 2: Up to 65% food left • 3: Greater than 65% food left • 1.1b Response to offered food • 0: Responds to offered food • 1: Inconsistent response to offered food • 2: Little to no interest in offered food • 1.2 Overall activity • 0: Normal • 1: Mild hypokinesia; decrease in spontaneous movement • 2: Moderate hypokinesia; sparse spontaneous movement • 3: Severe hypokinesia; no spontaneous movement; tends to remain in one place • 1.3 Appearance • 0: Normal • 1: Mild but noticeable decrease in self-maintenance • 2: Moderate decrease in self-maintenance • 3: Severe lack of self-maintenance • 1.4 Posture • 0: Normal • 1: Minor flexing or stooping • 2: Moderate flexing or stooping; head and upper body almost parallel to floor of cage • 3: Severe flexing or stooping; head lowered to feet • 1.5 Balance • 0: Normal • 1: Mild loss on arising or movement • 2: Moderate loss on arising or movement; occasionally falls or supports self to keep from falling • 3: Severe loss of balance; falls • 1.6 Climbing • 0: Climbing observed with no delays in initiation/execution • 1: Mild deficit in ability to climb and support weight • 2: Moderate deficit in ability to climb and support weight; tends to ‘slide down’ • 3: Absence of any climbing behavior • 1.7 Tremor • 0: Absent • 1: Slight and intermittent • 2: Slight and persistent or moderate and intermittent • 3: Moderate/severe and persistent • 1.8 Freezing during movement • 0: Absent • 1: Occasional freezing for brief periods • 2: Occasional freezing for prolonged periods or frequent freezing for brief periods • 3: Prolonged and frequent freezing • 1.9 Facial expression • 0: Normal • 1: Mild hypomimia • 2: Moderate hypomimia • 3: Severe, masked fixed faces • 1.10 Defense reaction • 0: Normal • 1: Mild, noticeable reduction in reaction or slowed reaction, but can be provoked to react • 2: Moderate reduction in reaction; can produce facial display but not body reaction • 3: Little to no response
Subgroup 2: Specific Motor Functions (0-21)

[3] = system: Parkinson's disease model cynomolgus monkeys (MPTP); experiment: Test Example 2: NDSs after combined administration of Compound (I) and levodopa in MPTP Parkinson's disease model monkeys; type: in vivo
Description: as §2
Parkinson's disease model cynomolgus monkeys were provided in the same way as in Test Example 1, and the therapeutic effect of the combined administration of Compound (I) and levodopa was examined.
By the end of the study, each animal had received all the five treatments. As a vehicle, an aqueous solution containing 0.43% (w/v) methyl cellulose 400, 10% (v/v) dimethyl sulfoxide (DMSO), and 4.5% (w/v) Cremophor (R) was used.
Before the administration, and 1 hr., 4 hrs., and 24 hrs. after the administration of the test substances, the NDSs of the monkeys were evaluated. The evaluation items and the evaluation methods are the same as in Test Example 1.

[4] = system: Parkinson's disease mouse model; details: pre-onset treatment; cited from earlier work
[5] = Levodopa 5 mg/kg (G3), 1 hr. after administration
[6] = Levodopa 5 mg/kg (G3), 4 hrs. after administration
[7] = Levodopa 5 mg/kg (G3), 24 hrs. after administration
[8] = Levodopa 5 mg/kg (G3), Pre (before administration)
[9] = Levodopa 10 mg/kg (G2), 1 hr. after administration
[10] = Levodopa 10 mg/kg (G2), 4 hrs. after administration
[11] = Levodopa 10 mg/kg (G2), 24 hrs. after administration
[12] = Levodopa 10 mg/kg (G2), Pre (before administration)

CCn1c(=O)c2c(nc(/C=C/c3ccc(OC)c(OC)c3)n2C)n(CC)c1=O [Istradefylline, reference compound] gave a Dyskinesia score ([1]; 1 hr. after administration) of 1.8 ± 0.2, a Dyskinesia score ([1]; 4 hrs. after administration) of 1.8 ± 0.2 and a Dyskinesia score ([1]; 24 hrs. after administration) of 1.8 ± 0.2. For the same compound, the Dyskinesia score ([1]; Pre (before administration)) was 1.7 ± 0.2, the “Subgroup 1: GENERALIZED BEHAVIORS score” value ([2]; 1 hr. after administration) was 16.1 ± 0.9 and the “Subgroup 2: Specific motor functions score” value ([2]; 1 hr. after administration) was 12.3 ± 0.8. The “Total score of NDSs” value ([2]; 1 hr. after administration) was 28.4 ± 1.6, the Tremor score ([2]; 1 hr. after administration) was 1.8 ± 0.2 and the “Subgroup 1: GENERALIZED BEHAVIORS score” value ([2]; 4 hrs. after administration) was 14.5 ± 0.6. The “Subgroup 2: Specific motor functions score” value ([2]; 4 hrs. after administration) was 10.9 ± 0.5, the “Total score of NDSs” value ([2]; 4 hrs. after administration) was 25.4 ± 1.0 and the Tremor score ([2]; 4 hrs. after administration) was 1.6 ± 0.2. The “Subgroup 1: GENERALIZED BEHAVIORS score” value ([2]; 24 hrs. after administration) was 15.9 ± 0.9, the “Subgroup 2: Specific motor functions score” value ([2]; 24 hrs. after administration) was 12.1 ± 0.5 and the “Total score of NDSs” value ([2]; 24 hrs. after administration) was 28.0 ± 1.2. The Tremor score ([2]; 24 hrs. after administration) was 1.6 ± 0.2, the “Subgroup 1: GENERALIZED BEHAVIORS score” value ([2]; Pre (before administration)) was 17.4 ± 0.9 and the “Subgroup 2: Specific motor functions score” value ([2]; Pre (before administration)) was 13.5 ± 0.4. For the same compound, the “Total score of NDSs” value ([2]; Pre (before administration)) was 30.9 ± 1.3 and the Tremor score ([2]; Pre (before administration)) was 2.1 ± 0.1.

With N[C@@H](Cc1ccc(O)c(O)c1)C(=O)O [Levodopa, levodopa] the “Subgroup 1: GENERALIZED BEHAVIORS score” value [3, 5] was 14.0 ± 0.7, the “Subgroup 2: Specific motor functions score” value [3, 5] was 11.0 ± 0.9 and the “Total score of NDSs” value [3, 5] was 25.0 ± 1.6. The Tremor score [3, 5] was 1.5 ± 0.2, the “Subgroup 1: GENERALIZED BEHAVIORS score” value [3, 6] was 15.0 ± 0.9 and the “Subgroup 2: Specific motor functions score” value [3, 6] was 11.9 ± 0.8. The “Total score of NDSs” value [3, 6] was 26.9 ± 1.7, the Tremor score [3, 6] was 1.8 ± 0.2 and the “Subgroup 1: GENERALIZED BEHAVIORS score” value [3, 7] was 17.0 ± 0.7. For the same compound, the “Subgroup 2: Specific motor functions score” value [3, 7] was 13.6 ± 0.5, the “Total score of NDSs” value [3, 7] was 30.6 ± 1.1 and the Tremor score [3, 7] was 2.0 ± 0.0. The “Subgroup 1: GENERALIZED BEHAVIORS score” value [3, 8] was 17.4 ± 0.7, the “Subgroup 2: Specific motor functions score” value [3, 8] was 14.3 ± 0.5 and the “Total score of NDSs” value [3, 8] was 31.6 ± 1.1. The Tremor score [3, 8] was 2.0 ± 0.0, the “Subgroup 1: GENERALIZED BEHAVIORS score” value [3, 9] was 13.5 ± 0.9 and the “Subgroup 2: Specific motor functions score” value [3, 9] was 10.9 ± 0.5. The “Total score of NDSs” value [3, 9] was 24.4 ± 1.2, the Tremor score [3, 9] was 1.4 ± 0.2 and the “Subgroup 1: GENERALIZED BEHAVIORS score” value [3, 10] was 15.0 ± 0.7. For the same compound, the “Subgroup 2: Specific motor functions score” value [3, 10] was 12.3 ± 0.5, the “Total score of NDSs” value [3, 10] was 27.3 ± 1.0 and the Tremor score [3, 10] was 1.4 ± 0.2. For the same compound, the “Subgroup 1: GENERALIZED BEHAVIORS score” value [3, 11] was 17.6 ± 0.7, the “Subgroup 2: Specific motor functions score” value [3, 11] was 14.0 ± 0.5 and the “Total score of NDSs” value [3, 11] was 31.6 ± 1.0. For the same compound, the Tremor score [3, 11] was 2.0 ± 0.0, the “Subgroup 1: GENERALIZED BEHAVIORS score” value [3, 12] was 17.8 ± 0.6 and the “Subgroup 2: Specific motor functions score” value [3, 12] was 13.9 ± 0.4. The “Total score of NDSs” value [3, 12] was 31.6 ± 0.8 and the Tremor score [3, 12] was 2.0 ± 0.0.

For Cc1ccsc1C(=CCCN1CCC[C@@H](C(=O)O)C1)c1sccc1C [tiagabine], the “effect on nigrostriatal axis and motor dysfunction” value [4] is given as “partially protects nigrostriatal axis to ameliorate motor dysfunction”.
